Assay results: patent US20030065039A1, “Biologically active 1,3-bis-aromatic-prop-2-en-1-ones, 1,3-bis-aromatic-propan-1-ones, and 1,3-bis-aromatic-prop-2-yn-1-ones” (Statens Serum Institute, priority 1997, published 2003)
Like-named read-outs stand apart in the source and are kept apart here.

How the values were obtained:
Type in all cases: cell-based
Leishmania promastigotes = Leishmania promastigotes Assay; details: read-out: Leishmania IC50 ± SD
Description: A WHO reference vaccine strain of L. major originally isolated from a patient in Iran and a Kenyan strain of L. donovani (MHOM(/KE/85/NLB 274) were cultured in medium 199 containing 0.02 mg/ml gentamycin, 25 mM Hepes, 4 mM L-glutamine, and 20% heat inactivated fetal calf serum (FCS). Incubation was carried out at 26° C. Promastigotes were harvested on day 3 and 6 of the culture and used for the parasite growth inhibition.
The effect of the test compounds on promastigotes was assessed by a method similar to the one described by Pearson et al., by incubating promastigotes (3×10^6/ml) at 26° C. for 2 hrs in the presence of a given compound or the medium alone in 96 wells flat bottom microtiter plates. Following incubation, 100 μCi of 3H-thymidine was added to each well and further incubated for 18 hrs. Promastigotes were then harvested on filter paper by means of a cell harvester, extensively washed with distilled water and counted in a scintillation counter. The promastigotes were also counted microscopically and their flagellar motility was assessed.

Plasmodium falciparum = Plasmodium falciparum Assay; details: 3-H-hypoxanthine incorporation, 48 hours, read-out: Plasmodium IC50 ± SD
Description: The experiments in which compounds were tested for their ability to inhibit parasite growth were performed by a modification of the method originally described by Jensen et al. (1982). 50 μl of parasitized erythrocytes (parasitemia approximately 1%) in a concentration of 5×10^8/ml and 50 μl of RPMI medium containing different concentrations of the test compound was added to each well of a 96 well flat-bottomed microtiter plate. The cultures were then incubated for 48 hours, 24 hours before termination of the culture adding 20 μl of 3-H-hypoxanthine (40 uCi/ml) was added to each well. The cultures were then harvested onto glass fiber filters using a Skatron cell harvester, and the incorporation of 3-H-hypoxanthine into the DNA of dividing parasites was determined by liquid scintillation spectrometry. Control cultures with uninfected erythrocytes and infected erythrocytes in RPMI medium without test compounds were always performed in parallel to the test cultures. In some experiments thin smears of parasite cultures were stained by Giemsa and examined under microscope (×1000). The test compounds described above, were diluted in RPMI medium immediately before use. In the experiments, chloroquine phosphate was used as a positive control as a drug known to inhibit parasite growth.

human lymphocytes = assay: Lymphocyte Proliferation Assay; details: read-out: Lymphocytes IC50 ± SD
Description: Human blood mononuclear cells (BMNC) from heparinized blood were isolated by metrizoate sodium-Ficoll density gradient centrifugation, washed 3 times in RPMI 1640 medium supplemented with 5% FCS and with 400 IU of penicillin plus 400 μg/ml streptomycin. BMNC were resuspended in the medium and cultured in triplicate, 0.63×10^5/ml and 160 μl per vial, in round-bottom microtiter plates with 20 μl of various concentrations of the test compound. Immediately prior to incubation, optimum concentrations of the mitogen phytohaemagglutinin (PHA) and the antigen purified protein derivative of tuberculin (PPD) were added to the cultures in a volume of 20 μl. Unstimulated control cultures were always included. Cultures were incubated for 3 or 7 days. The degree of lymphocyte proliferation was estimated by ^3H-thymidine (1 μCi per well) addition 24 h before the cells were harvested on glass fiber filters by means of a harvesting machine), and ^3H-thymidine incorporation was measured in a liquid scintillation counter. For each set of triplicate values, the median was recorded. Unstimulated cultures were always included as controls.

[1] = Leishmania, promastigotes, 3H-thymidine uptake
[2] = Lymphocyte, PHA provoked proliferation of human lymphocytes
[3] = promastigotes, 3H-thymidine uptake
[4] = PHA provoked proliferation of human lymphocytes

| IC50 (Leishmania promastigotes; [1]) | IC50 (Plasmodium falciparum; Plasmodium falciparum) | Structure (SMILES) | IC50 (human lymphocytes; [2]) | IC50 (Leishmania promastigotes; [3]) | IC50 (human lymphocytes; [4]) | other results |
| --- | --- | --- | --- | --- | --- | --- |
| 20 ± 1 µM | 44 µM | O=C(/C=C/c1ccccc1)c1ccccc1 [Chalcon] | 21 ± 2 µM |  |  |  |
|  |  | C=CCOc1ccc(C(=O)/C=C/c2cc(OC)ccc2OC)cc1 [2,5-OCH3-4′-allyloxy] |  | 73 ± 4 µM | 55 ± 2 µM | IC50 (Plasmodium falciparum): 23 µM |
| 9.7 ± 0.9 µM | 29 µM | COc1ccc(C(=O)/C=C/c2cccc(F)c2)c(OC)c1OC [3-F-2′,3′,4′-OCH3, 3-fluoro-2′,3′,4′-trimethoxychalcone] | 6.4 ± 0.4 µM |  |  |  |
| 8.7 ± 0.5 µM | 8.9 µM | COc1ccc(C(=O)/C=C/c2cccc(Oc3ccccc3)c2)c(OC)c1OC [3-OC6H5-2′,3′,4′-OCH3, 3-phenoxy-2′,3′,4′-trimethoxychalcone] | 17 ± 1 µM |  |  |  |
| 21 ± 2 µM | 22 µM | COc1ccc(C(=O)/C=C/c2ccc(N(C)C)cc2)c(OC)c1OC [4-N(CH3)2-2′,3′,4′-OCH3, 4-dimethylamino-2′,3′,4′-trimethoxychalcone] | 35 ± 2 µM |  |  |  |
| 22 ± 3 µM | 33 µM | COc1c(/C=C/C(=O)c2ccc(O)cc2)ccc(O)c1C [2-OCH3-3-methyl-4,4′-OH, 2-methoxy-3-methyl-4,4′-dihydroxychalcone] | 27 ± 4 µM |  |  |  |
|  |  | O=C(/C=C/c1ccc(O)c(O)c1)c1ccc(O)cc1O [2′,4′,3,4-OH] |  | 66 ± 2 µM | 16 ± 1 µM | IC50 (Plasmodium falciparum): 49 µM |
| 15 ± 2 µM | 43 µM | O=C(/C=C/c1ccc(F)cc1)c1ccc(F)cc1 [4′,4-F, 4,4′-difluorochalcone] | 22 ± 1 µM |  |  |  |
|  |  | O=C(/C=C/c1ccc(O)cc1)c1ccc(O)cc1 [4′-4-OH] |  | 83 ± 5 µM | 59 ± 3 µM | IC50 (Plasmodium falciparum): 17 µM |
|  |  | C=CCOc1ccccc1C(=O)/C=C/c1ccc(OC)cc1OC [2,4-OCH3-2′-allyloxy] |  | 5 ± 0.7 µM |  |  |
|  |  | COc1cc(/C=C/C(=O)c2ccc(O)cc2O)ccc1O [2′,4′,4-OH-3-OCH3] |  | 16 ± 2 µM | 31 ± 2 µM | IC50 (Plasmodium falciparum): 43 µM |
|  |  | COc1ccc(/C=C/C(=O)c2cccc(Br)c2)c(OC)c1 [3′-Br-2,4-OCH3] |  | 16 ± 1 µM | 37 ± 2 µM | IC50 (Plasmodium falciparum): 17 µM |
| 27 ± 2 µM |  | O=C(/C=C/c1ccc(F)cc1)c1ccc(C2CCCCC2)cc1 [4′-cC6H11-4-F, 4-fluoro-4′-cyclohexylchalcone] | 74 ± 2 µM |  |  |  |
| 89 ± 9 µM | 25 µM | COc1cccc(/C=C/C(=O)c2ccc(O)cc2)c1OC [2,3-OCH3-4′-OH, 2,3-dimethoxy-4′-hydroxychalcone] | 70 ± 4 µM |  |  |  |
| 26 ± 2 µM | 10 µM | CCCc1cc(/C=C/C(=O)c2ccc(O)cc2)c(OC)cc1O [2-OCH3-4,4′-OH-5-propyl, 2-methoxy-4,4′-dihydroxy-5-propylchalcone] | 41 ± 3 µM |  |  |  |
|  |  | C=CCOc1ccc(C(=O)/C=C/c2cccc(OC)c2OC)cc1 [2,3-OCH3-4′-allyloxy] |  | 49 ± 3 µM | 96 ± 6 µM | IC50 (Plasmodium falciparum): 26 µM |
|  |  | C=CCOc1ccc(C(=O)/C=C/c2c(OC)cccc2OC)cc1 [2,6-OCH3-4′-allyloxy] |  | 81 ± 7 µM | 96 ± 8 µM |  |
|  | 93 µM | CN(C)c1ccc(C(=O)/C=C/c2ccc([N+](=O)[O-])cc2)cc1 [4′-N(CH3)2-4-NO2, 4-nitro-4′-dimethylaminochalcone] |  |  |  |  |
|  |  | CCCCCCOc1ccc(C(=O)/C=C/c2ccc(OC)cc2OC)cc1 [2,4-OCH3-4′-OC6H13] |  | 136 ± 15 µM |  | IC50 (Plasmodium falciparum): 14 µM |
| 90 ± 14 µM |  | C=CCOc1ccc(C(=O)/C=C/c2cc(OC)c(CCCC)c(OC)c2)cc1 [4-C4H9-3,5-OCH3-4′-allyloxy, 4-butyl-3,5-dimethoxy-4′-(2-propenyloxy)chalcone] |  |  |  |  |
|  |  | COc1cc(/C=C/C(=O)c2ccc(O)cc2)cc(OC)c1 [3,5-OCH3-4′-OH] |  | 12 ± 1 µM | 14 ± 1 µM | IC50 (Plasmodium falciparum): 25 µM |

| IC50 (Leishmania promastigotes; [1]) | IC50 (Plasmodium falciparum; Plasmodium falciparum) | Structure (SMILES) | IC50 (human lymphocytes; [2]) | IC50 (Leishmania promastigotes; [3]) | IC50 (human lymphocytes; [4]) | other results |
| --- | --- | --- | --- | --- | --- | --- |
|  |  | COc1ccc(/C=C/C(=O)c2ccc(OC)cc2)cc1 [4′,4-OCH3] |  | 106 ± 9 µM | 112 ± 8 µM | IC50 (Plasmodium falciparum): 51 µM |
| 9.7 ± 0.9 µM | 5.1 µM | CCCCCCc1cc(/C=C/C(=O)c2ccc(O)cc2)c(OC)cc1O [2-OCH3-4,4′-OH-5-hexyl, 2-methoxy-4,4′-dihydroxy-5-hexylchalcone] | 46 ± 3 µM |  |  |  |
|  |  | COc1cccc(OC)c1/C=C/C(=O)c1ccc(O)cc1 [2,6-OCH3-4′-OH] |  | 82 ± 8 µM | 60 ± 2 µM |  |
|  |  | CN(C)c1ccc(/C=C/C(=O)c2ccc(O)cc2)cc1 [4-N(CH3)2-4′-OH] |  | 79 ± 6 µM | 130 ± 13 µM |  |
|  |  | COc1ccc(C(=O)/C=C/c2ccc(Cl)cc2Cl)c(OC)c1OC [2′,3′,4′-OCH3-2,4-Cl] |  | 6.3 ± 0.6 µM | 7.8 ± 0.9 µM | IC50 (Plasmodium falciparum): 7.9 µM |
| 14 ± 2 µM | 26 µM | COc1ccc(/C=C/C(=O)c2ccccc2Br)c(OC)c1 [2′-Br-2,4-OCH3, 2,4-dimethoxy-2′-bromochalcone] | 35 ± 3 µM |  |  |  |
|  |  | COc1ccc(/C=C/C(=O)c2ccccc2OC)c(OC)c1 [2,4,2′-OCH3] |  | 16 ± 1 µM | 26 ± 2 µM |  |
| 39 ± 5 µM | 28 µM | COc1cc(O)cc(C)c1/C=C/C(=O)c1ccc(O)cc1 [2-OCH3-4,4′-OH-6-methyl, 2-methoxy-4,4′-dihydroxy-6-methylchalcone] | 53 ± 6 µM |  |  |  |
| 19 ± 4 µM | 11 µM | C=CCOc1ccc(C(=O)/C=C/c2cc(OC)c(CCCCCC)c(OC)c2)cc1 [4-C6H13-3,5-OCH3-4′-allyloxy, 4-hexyl-3,5-dimethoxy-4′-(2-propenyloxy)chalcone] | 15 ± 1 µM |  |  |  |
|  |  | COc1cc(OC)c(/C=C/C(=O)c2ccc(O)cc2)c(OC)c1 [2,4,6-OCH3-4′-OH] |  | 106 ± 8 µM | 44 ± 2 µM |  |
|  |  | C=CCOc1ccc(C(=O)/C=C/c2cc(OCC=C)ccc2OCC=C)cc1 [2,5,4′-allyloxy] |  | 38 ± 2 µM | 61 ± 3 µM |  |
|  |  | C=CCOc1ccc(C(=O)/C=C/c2cc(OC)c(OC)c(OC)c2)cc1 [3,4,5-OCH3-4′-allyloxy] |  | 41 ± 4 µM | 30 ± 1 µM |  |
| 15 ± 1 µM | 51 µM | O=C(/C=C/c1ccccc1)c1ccc(F)cc1 [4′-F, 4′-fluorochalcone] | 23 ± 2 µM |  |  |  |
| 68 ± 4 µM | 19 µM | COc1cc(O)ccc1/C=C/C(=O)c1ccc(O)cc1 [2-OCH3-4,4′-OH, 2-methoxy-4,4′-dihydroxychalcone] | 94 ± 4 µM |  |  |  |
| 55 ± 3 µM | 16 µM | COc1c(/C=C/C(=O)c2ccc(O)cc2)ccc(O)c1CC=C(C)C [Licochalcone C, 2-methoxy-3-(3-methyl-2-butenyl)-4,4′-dihydroxychalcone] | 53 ± 2 µM |  |  |  |
|  |  | COc1ccc(/C=C/C(=O)c2ccccc2O)c(OC)c1 [2,4-OCH3-2′-OH] |  | 35 ± 2 µM | 144 ± 9 µM | IC50 (Plasmodium falciparum): 28 µM |
|  |  | COc1ccc(/C=C/C(=O)c2ccccc2)c(OC)c1 [2,4-OCH3] |  | 15 µM | 48 ± 2 µM | IC50 (Plasmodium falciparum): 34 µM |
|  |  | O=C(/C=C/c1ccc([N+](=O)[O-])cc1)c1ccc([N+](=O)[O-])cc1 [4′,4-NO2, 4,4′-dinitro-chalcone] |  |  |  | IC50 (Leishmania promastigotes; Leishmania): 26 ± 4 µM; IC50 (human lymphocytes; Homo sapiens, Lymphocyte): 51 ± 3 µM |
| 23 ± 2 µM |  | COc1ccc(OC)c(/C=C/C(=O)c2ccc(O)cc2)c1 [2,5-OCH3-4′-OH, 2,5-dimethoxy-4′hydroxychalcone] | 22 ± 1 µM |  |  |  |
|  |  | COc1ccc(OC)c(C(=O)/C=C/c2ccc(Cl)cc2Cl)c1 [2′,5′-OCH3-2,4-Cl] |  | 7.8 ± 0.7 µM | 5.7 ± 0.5 µM |  |

| Structure (SMILES) | IC50 (Leishmania promastigotes; [1]) | IC50 (Plasmodium falciparum; Plasmodium falciparum) | IC50 (human lymphocytes; [2]) | IC50 (Leishmania promastigotes; [3]) | IC50 (human lymphocytes; [4]) | other results |
| --- | --- | --- | --- | --- | --- | --- |
| CCCCOc1ccc(C(=O)/C=C/c2ccc(OC)cc2OC)cc1 [2,4-OCH3-4′-OC4H9, 2,4-dimethoxy-4′-butoxychalcone] | 95 ± 10 µM |  |  |  |  |  |
